Measured values taken from patent US8759400B2, “Histone deacetylase inhibitors for enhancing activity of antifungal agents” (MethylGene Inc., priority 2005, dated 2014).
Like-named read-outs stand apart in the source and are kept apart here.

Columns and labels:
C. tropicalis (750) = test: MIC and checkerboard synergy with azoles; format: cell-based, Candida tropicalis
Procedure: For susceptibility studies, overnight cultures of both Candida species are diluted 1:100 in YEPD medium, grown for 4 h at 30° C., counted in a hemocytometer, then diluted to a concentration of 5×10^3 cells/ml. […] Synergy, determined by the checkerboard method, is defined as a decrease in MIC of antifungal agent that is more than additive of the MIC of the histone deacetylase inhibitor and the antifungal agent alone.

C. glabrata = test: Clinical isolates, CLSI M27-A2 broth microdilution and checkerboard; format: cell-based
C. glabrata (ATCC 90030) = format: cell-based
C. albicans (ATCC 90028) = test: MIC80 and checkerboard synergy with antifungal agents; format: cell-based, Candida albicans; details: for Conc. Cpd 4 for 4-fold decrease: C. albicans; for Cpd 4 Conc for 4-fold synergy: C. albicans (90028)
Rhizopus arrhizus = test: Clinical isolates of other fungal species, checkerboard; format: cell-based
Trichosporon = test: as above; format: cell-based
Candida spp. = test: Clinical isolates, checkerboard, summary over 45 isolates; format: cell-based; details: for isolates with synergy / isolates tested: 45 clinical isolates of Candida spp.
Paecilomyces lilacinus = test: Clinical isolates of other fungal species, checkerboard; format: cell-based
Fusarium sp. = test: as above; format: cell-based
Procedure: To determine the synergy between Compound 4 and azoles against other fungal species, a series of clinical isolates (Micheal Rinaldi, University of Texas Health Science Center) was tested by the checkerboard method as described in Example 1.

C. lusitaniae = test: Clinical isolates, CLSI M27-A2 broth microdilution and checkerboard; format: cell-based
Mucor Sp. = test: Clinical isolates of other fungal species, checkerboard; format: cell-based
[1] = Rhizopus arrhizus, *Synergy occurs at ½ MIC of Cpd 4
[2] = Trichosporon, **MIC of azole <0.06 μg/ml, too low to determine synergistic concentration
[3] = Paecilomyces lilacinus, *Synergy occurs at ½ MIC of Cpd 4

O=C(Cc1ccc(CCCCc2ccccc2)cc1)NO [Cpd 4]
MIC (C. tropicalis (750); Candida tropicalis, read-out: Cpd 4 MIC): > 50 µg/mL | Cpd 4 Conc for 4-fold synergy (C. tropicalis (750); with itraconazole): 0.2 µg/mL | Cpd 4 Conc for 4-fold synergy (C. tropicalis (750); with ketoconazole): 0.2 µg/mL | Cpd 4 Conc for 4-fold synergy (C. tropicalis (750); with voriconazole): 0.39 µg/mL | Conc. Cpd 4 for 4-fold decrease (C. glabrata; 4-fold reduction of FLU MIC, C. glabrata clinical isolates): 0.5 µg/mL | Conc. Cpd 4 for 4-fold decrease (C. glabrata; 4-fold reduction of VOR MIC, C. glabrata clinical isolates): 0.5 µg/mL | FLU/Cpd 4 FIC (C. glabrata; Cpd 4 with fluconazole, C. glabrata clinical isolates): 0.5 | VOR/Cpd 4 FIC interpretation (C. glabrata; Cpd 4 with voriconazole, C. glabrata clinical isolates): (S) (S = synergy) | minimum Compound 4 concentration at which Compound 4 alone inhibited growth (number in brackets) (C. glabrata; FLU checkerboard, C. glabrata clinical isolates): 0.5 µg/mL | minimum Compound 4 concentration at which Compound 4 alone inhibited growth (number in brackets) (C. glabrata; VOR checkerboard, C. glabrata clinical isolates): 0.5 µg/mL | Compound 4 concentration for 4-fold reduction in azole MIC (C. glabrata; all 14 C. glabrata clinical isolates (9 FLU-R)): < 0.5 µg/mL | frequency of resistant mutants (C. glabrata (ATCC 90030); 4× synergistic MIC80 concentrations of Compound 4 and fluconazole): 2×10^−7 | frequency of resistant mutants (C. glabrata (ATCC 90030); 4× the synergistic MIC80 of Compound 4 and itraconazole): 1×10^−7 | resistant mutants detected (C. glabrata (ATCC 90030); Compound 4 and itraconazole at 2×MIC): no mutants were detected | Conc. Cpd 4 for 4-fold decrease (C. albicans (ATCC 90028); 4-fold decrease of nikkomycin MIC): 1.563 µg/mL | Conc. Cpd 4 for 4-fold decrease (C. albicans (ATCC 90028); 4-fold decrease of terbinafine MIC): 0.78 µg/mL | MIC (C. albicans (ATCC 90028); Candida albicans, ATCC90028, compound alone, C. albicans (ATCC 90028), read-out: MIC80): 0.8 µg/mL | Cpd 4 Conc for 4-fold synergy (C. albicans (ATCC 90028); with itraconazole): 0.024 µg/mL | Cpd 4 Conc for 4-fold synergy (C. albicans (ATCC 90028); with voriconazole): 0.39 µg/mL | MIC (Rhizopus arrhizus; Rhizopus arrhizus clinical isolates, read-out: Cpd 4 MIC): > 8 µg/mL | Synergy with Cpd 4 (strains showing synergy/total strains tested) Itraconazole (Rhizopus arrhizus; [1]): 2/3* | Synergy with Cpd 4 (strains showing synergy/total strains tested) Voriconazole (Rhizopus arrhizus; [1]): 2/3* | MIC (Trichosporon; Trichosporon clinical isolates, read-out: Cpd 4 MIC): 0.125 to 0.5 µg/mL | Synergy with Cpd 4 (strains showing synergy/total strains tested) Itraconazole (Trichosporon; [2]): 1/3** | Synergy with Cpd 4 (strains showing synergy/total strains tested) Voriconazole (Trichosporon; [2]): 0/3** | in vitro antagonism of Compound 4-azole combination (Candida spp.; Candida spp. clinical isolates): none of the isolates tested | isolates with synergy / isolates tested (Candida spp.; Compound 4 with FLU): 34/45 | isolates with synergy / isolates tested (Candida spp.; Compound 4 with VOR): 37/45 | Synergy with Cpd 4 (strains showing synergy/total strains tested) Itraconazole (Paecilomyces lilacinus; [3]): 2/3* | Synergy with Cpd 4 (strains showing synergy/total strains tested) Voriconazole (Paecilomyces lilacinus; [3]): 2/3* | MIC (Paecilomyces lilacinus; Purpureocillium lilacinum, Paecilomyces lilacinus clinical isolates, read-out: Cpd 4 MIC): 4 µg/mL | Synergy with Cpd 4 (strains showing synergy/total strains tested) Itraconazole (Fusarium sp.; Fusarium sp.): 1/3 | MIC (Fusarium sp.; Fusarium sp. clinical isolates, read-out: Cpd 4 MIC): 8 µg/mL | Synergy with Cpd 4 (strains showing synergy/total strains tested) Voriconazole (Fusarium sp.; Fusarium sp., *Synergy occurs at ½ MIC of Cpd 4): 3/3* | FLU/Cpd 4 FIC (C. lusitaniae; Cpd 4 with fluconazole): <0.1 | FLU/Cpd 4 FIC interpretation (C. lusitaniae; Cpd 4 with fluconazole): (S) (S = synergy) | VOR/Cpd 4 FIC interpretation (C. lusitaniae; Cpd 4 with voriconazole): (S) (S = synergy) | minimum Compound 4 concentration at which Compound 4 alone inhibited growth (number in brackets) (C. lusitaniae; VOR checkerboard): 4 µg/mL | Synergy with Cpd 4 (strains showing synergy/total strains tested) Itraconazole (Mucor Sp.; Mucor Sp.): 1/3 | Synergy with Cpd 4 (strains showing synergy/total strains tested) Voriconazole (Mucor Sp.; Mucor Sp.): 0/3 | MIC (Mucor Sp.; Mucor Sp. clinical isolates, read-out: Cpd 4 MIC): 8 µg/mL
